Paper PMC10814725, “In Vitro Anti-Inflammatory Study of Limonoids Isolated from Chisocheton Plants” (Current Issues in Molecular Biology, 2024)
Where two headings read alike, the source gives them in different places.

Key:
[1] = system: TNF-α; experiment: ELISA of TNF-α production in LPS-stimulated THP-1 cells; type: cell-based, human; conditions: for Effect on TNF-α level: 10 µM, compared to LPS (+)-stimulated group, THP-1 cells; for IC50: Homo sapiens, THP-1, 18 h, LPS-stimulated (10 ng/mL) THP-1 cells, 1, 5, 10, 20 µM, 18 h, read-out: TNF-α IC50; for TNF-α SI (selectivity index, CC50/IC50): THP-1 CC50 / TNF-α IC50
[2] = Cell viability by CCK-8, THP-1 cells; type: cell-based; conditions: human, PMA-differentiated THP-1 cells; for CC50 at 18 h: concentration causing 50% cytotoxicity against THP-1 cells
Procedure, shortened: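 THP-1 cells seeded at 5 × 10^4 cells/well in 96-well plates were differentiated with 0.5 μM PMA for 24 h, washed with PBS, and held overnight at 37 °C in RPMI-1640 containing 0.1% FBS and 1% penicillin–streptomycin. After 1 h compound pretreatment and 18 h further incubation, 10% (v/v) CCK-8 was added for 1 h. Absorbance was read at 405 nm, and background-corrected viability was expressed relative to untreated control cells.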

[3] = LPS 10 ng/mL, read-out: Viability Cell (%) THP-1 LPS-Induced (10 ng/mL)
[4] = without LPS, read-out: Viability Cell (%) THP-1 Without LPS

Q: For `CC(=O)O[C@H]1[C@@H](OC(C)=O)[C@@]2(C)C3=CC[C@@H](c4ccoc4)[C@]3(C)CC[C@@H]2[C@@]2(C)C=CC(=O)C(C)(C)[C@H]12` [Compound 5, dysobinin], which “Effect on TNF-α level” value [1] is on record?
A: The value was “significantly reduced”.

Q: What about the IC50 [1] of the same compound?
A: Its IC50 is 5.76 µM.

Q: And the “TNF-α SI (selectivity index, CC50/IC50)” value [1]?
A: Its value is 2.53.

Q: And the viability at 18 h, 10 µM [2, 3]?
A: Its viability at 18 h, 10 µM is 52 ± 6.51%.

Q: What about the viability at 18 h, 10 µM [2, 4] of the same compound?
A: Its viability at 18 h, 10 µM is 66.7 ± 6.02%.

Q: What about the CC50 at 18 h [2] of the same compound?
A: The CC50 at 18 h was 14.6 µM.

Q: Which “Effect on TNF-α level” value [1] does the source give for `CC(=O)O[C@H]1[C@@H](O)[C@@]2(C)C3=CC[C@@H](c4ccoc4)[C@]3(C)CC[C@@H]2[C@@]2(C)C=CC(=O)C(C)(C)[C@H]12` [Compound 3, 6α-O-acetyl-7-deacetylnimocinol] here?
A: Its value is “significantly reduced”.

Q: And the IC50 [1]?
A: Its IC50 is 9.18 µM.

Q: What about the “TNF-α SI (selectivity index, CC50/IC50)” value [1] of the same compound?
A: The value was 2.21.

Q: And the viability at 18 h, 10 µM [2, 3]?
A: The viability at 18 h, 10 µM was > 99.9%.

Q: And the viability at 18 h, 10 µM [2, 4]?
A: Its viability at 18 h, 10 µM is > 99.9%.

Q: What about the CC50 at 18 h [2] of the same compound?
A: Its CC50 at 18 h is 20.3 µM.
